Assay [1] has as its system T4-2 cells. The assay is described as follows: T4-2 cell proliferation with Gefitinib in absence or presence of TGFα. The format is cell-based, human. The settings on record: Gefitinib 0 nM, 0.3 nM and 3 nM. Here is the method: Control cells were cultured in the absence of TGFα and cells were cultured in the presence of TGFα. Both the control cells and cells grown with TGFα were also cultured with various amounts of Gefitinib at 0 nM, 0.3 nM and 3 nM.

A further assay concerns MAPK. Kind of assay: MAPK activation in S1 cells by conditioned medium from T4-2 cells. The format is cell-based, human. The settings on record: pre-incubation of S1 cells with inhibitor. Here is the method:
Western blotting. Cells were lysed in 50 mM Tris.HCl pH 7.5, 150 mM NaCl, 0.5% NP40 supplemented with protease and phosphatase inhibitors (Calbiochem, San Diego, Calif.) and clarified by centrifugation. 50 μg of each sample was fractionated by SDS-PAGE, transferred to nitrocellulose membranes and probed with antibodies against the following proteins: phospho-MAPK, Total MAPK, phospho-p70S6-Kinase, (Cell Signaling Technology, MA). E-cadherin (BD Biosciences, CA) was used as a loading control. Blots were developed using Supersignal West Femto (Pierce, Rockland, Ill.). Images were captured using a Fluor Chem 8900 imager (Alpha Innotech, San Leandro, Calif.).

Assay [2] relates to non-small cell lung cancer (NSCLC) patients. To be noted: two large trials, chemotherapy with Gefitinib; cited from earlier work.
Assay [3] concerns T4-2 cells expressing AREGΔTM. Kind of assay: 3D culture of T4-2 cells expressing soluble AREG (AREGΔTM): colony size and morphology. The class given is cell-based, human. To be noted: AG1478-treated AREGΔTM vs proAREG colonies, P<0.0001. Here is the method: (§1) For 3D lrECM culture, T4-2 cells were seeded at 21000 cells per cm^2 on top of Matrigel, overlaid with H14 medium containing 5% Matrigel (BD Biosciences, San Jose, Calif.), and treated with 80 nM AG1478, 20 μM TAPI-2 or the relevant vehicle controls.
(§2) Amphotropic retroviruses were generated by transfection (Lipofectamine; Invitrogen, Carlsbad, Calif.) of the Phoenix packaging cell line (a gift of Dr. Gary Nolan, Stanford) with pBM-IRES-Puro or derivatives containing the AREG or TGFα open reading frames. Two million phoenix cells per 6 cm dish were plated the day prior to transfection and transfected with 2 μg of the appropriate retroviral construct. Retrovirus-containing culture medium was harvested after 48 hrs, supplemented with polybrene to 5 μg/ml and added to HMT3522 cells at 30-50% confluence. Pools of stable infectants were selected in 1 μg/ml puromycin.
(§3) Cloning of pro-AREG and pro-TGFα. The open reading frames of these genes were amplified by PCR from T4-2 cDNA. […]
(§4) Quantitation of colony size in the 3D lrECM culture was performed by image analysis. […] The high resolution digital images were then analyzed using NIH Image analysis software and the cross-sectional area of each colony was determined for many colonies. This process was hand-curated to ensure that aggregates of colonies were not measured as a single colony.

The test system of assay [4] is T4-2 cells expressing TGFαΔTM. Kind of assay: 3D culture of T4-2 cells expressing soluble TGFα (TGFαΔTM): colony size and morphology. The settings on record: AG1478-treated TGFαΔTM vs proTGFα colonies, P<0.05. The format is cell-based, human. Here is the method:
as §1, §2, §3, §4

Assay [5] has as its system T4-2 cells. Kind of assay: 3D culture of T4-2 cells in 80 nM AG1478 with various amounts of EGF. The class given is cell-based, human. The settings on record: 80 nM AG1478, four days. On the procedure:
It was shown that increasing amounts of the EGFR ligand, EGF, attenuates T4-2 cells response to 80 nM of AG 1478. Cells were cultured for four days in 80 nM AG1478 and various amounts of EGF. Above a threshold EGF concentration between 0.1-1 ng/ml ([…]), the EGFR inhibitor can no longer revert the malignant phenotype. Thus, reversion of T4-2 cells by EGFR inhibition is overcome by the presence of picomolar amounts of EGFR ligand.

The subject of assay [6] is T4-2 cells. The assay is described as follows: Relative proliferation of T4-2 cells with AG 1478 with or without TAPI-2 (sensitization, FIG. 5). The class given is cell-based, human. To be noted: 0.01 μM AG 1478 alone. On the procedure:
FIG. 5. […] T4-2 cells were allowed to adhere to 48 well plates. Drugs were added at the indicated concentrations. Conditions were analyzed in triplicate. For comparison, all data were normalized to the 100%.
(FIG. 5) In this experiment, T4-2 cells were allowed to adhere to 48 well plates. Drugs, AG 1478 and TAPI-2, were added at various concentrations of 0.001 μM, 0.01 μM, 0.1 μM, 1 μM, 10 μM and 100 μM. Conditions were analyzed in triplicate. For comparison, all data were normalized to the 100%.

For assay [7], the system named is T4-2 cells. Kind of assay: 3D lrECM (Matrigel) culture of T4-2 cells: reversion of malignant phenotype, polarity, colony size. The format is cell-based, human. Here is the method:
as §1
Silencer™ siRNAs against TACE (Ambion, Austin, Tex.) were also transfected in according to the Reverse Transfection protocol of Invitrogen. siRNAs against the following TACE sense strand sequences were transfected either individually (100 nM) or as a pool (33.3 nM each): […]tt (SEQ ID NO: 2), GCAGCAt[…]tt (SEQ ID NO:3) and […]tt (SEQ ID NO: 4). For 3D culture assays, T4-2 cells were trypsinized post-transfection and plated as single cells in Matrigel. Knockdown was assessed by western blot from a parallel transfection 48 hrs post-transfection. Random siRNA sequence was used as a negative control.
Indirect immunofluorescence. Colonies were solubilized from […] culture by shaking in PBS/0.05M EDTA on ice for 30 mins, fixed in 4% paraformaldehyde, permeabilized, stained with anti-α6-integrin (Chemicon, Temecula, Calif.) and counterstained with DAPI.
Quantitation of colony size in the 3D lrECM culture was performed by image analysis. Representative images were captured using a digital camera attached to a phase contrast microscope. The high resolution digital images were then analyzed using NIH Image analysis software and the cross-sectional area of each colony was determined for many colonies. This process was hand-curated to ensure that aggregates of colonies were not measured as a single colony.

The target in assay [8] is transmembrane precursor of Amphiregulin (pro-AREG) (human (cloned from T4-2 human breast cell cDNA)) (UniProt P15514). The assay is described as follows: cell-based or functional assay.
In the next assay the test system is S1 cells. The assay is described as follows: S1 cell proliferation with recombinant EGFR ligands. The class given is cell-based, human. To be noted: recombinant ligand equimolar to EGF (860 μM). Here is the method:
Cell culture All reagents were purchased from SIGMA (St. Louis, Mo.) except where otherwise noted. HMT3522 cells were cultivated on 2D and 3D substrata in H14 medium, a 50:50 mix of DMEM/F12 (UCSF Cell culture Facility, San Francisco, Calif.) supplemented with 5 μg/ml prolactin, 250 ng/ml insulin, 1.4×10^−6 M hydrocortisone, 10^−10 M β-estradiol, 2.6 ng/ml sodium selenite and 10 μg/ml transferrin. S1 cells were additionally supplemented with 10 ng/ml EGF. In various experiments, cells were supplemented with AREG, TACE, TGFα. In all cases, AREG and TGFα were used at the same molar concentration as EGF ([…]).
Proliferation assays. HMT3522 cells were seeded in 96 well plates and treated (in triplicate) as described in the figure legends. To determine relative growth, 0.1 volumes of WST cell proliferation analysis reagent (Roche, Indianapolis, Ind.) was added to the medium and its formazan metabolite was measured by absorbance at 460 nm.

The subject of assay [9] is patients with advanced pancreatic adenocarcinoma. To be noted: cited from earlier work.
Another assay deals with NSCLC. To be noted: single agent in NSCLC; cited from earlier work.

“Also recorded” adds a separate entry of the source.

Consider `COc1cc2ncnc(Nc3ccc(F)c(Cl)c3)c2cc1OCCCN1CCOCC1` [Gefitinib], for which the “effect of added TGFα on sensitivity of T4-2 cells to Gefitinib (cell proliferation)” value in the assay with T4-2 cells [1] was “reduced the effectiveness”. In addition, the “activation of MAPK in S1 cells by T4-2 conditioned medium” value with MAPK is “suppressed”. Also, the “survival vs chemotherapy alone” value in assay [2] is “no better than chemotherapy alone”.

For `COc1cc2ncnc(Nc3cccc(Cl)c3)c2cc1OC` [AG1478], the “colony size in presence of the EGFR inhibitor” value in assay [3] and in assay [4] was “consistently larger than those formed by cells infected with either empty vector or with the membrane-tethered pro-forms” in each case. The “threshold EGF concentration above which the EGFR inhibitor can no longer revert the malignant phenotype” value in the assay on T4-2 cells [5] (3D culture) was 0.1 to 1 ng/mL; with T4-2 cells [5] (molar equivalent) it was 8.6 to 86 pM. The “reduction in proliferation, EGFR inhibitor alone” value in the assay on T4-2 cells [6] is recorded as “no reduction in proliferation”. The “colony size (cross-sectional area) vs vehicle” value in the assay on T4-2 cells [7] (3D culture, four days, p<0.001) is listed as “significantly smaller than those formed by cells treated with vehicle alone; also recorded: significantly different from controls”. In addition, the “reversion of the malignant phenotype of T4-2 cells” value with T4-2 cells [7] (3D lrECM culture, 80 nM AG1478 or 20 μM TAPI-2 vs vehicle) is on record as “reversion of the malignant phenotype; also recorded: may be reverted”.

Consider “TACE/ADAM17 expressed endogenously in human breast cancer cells (T4-2, MCF-7) (from UniProt P78536 215-824) (enzyme)”, for which the reduction in AREG shedding from MCF-7 cells after siRNA knockdown of TACE in [8] is 90%.

Turning to TGFα: recombinant EGFR ligand TGFα, in the assay with S1 cells, the “proliferation of non-malignant S1 cells in place of EGF” value is given as “can substitute for EGF to promote proliferation”.

For the molecule `C#Cc1cccc(Nc2ncnc3cc(OCCOC)c(OCCOC)cc23)c1` [Erlotinib], in assay [9] (added to gemcitabine), the “median extension in progression-free survival” value is “six” and the “median increase in overall survival” value was 14 days. Moreover, the survival benefit entry in assay [9] is “statistically significant survival benefit”. In addition, in the assay on NSCLC, the “increase in median progression-free survival time” value was “two”.

B1: AREG: recombinant EGFR ligand Amphiregulin (protein, UniProt P15514 101-187, looked up)
Amphiregulin: SVRVEQVVKPPQNKTESENTSDKPKRKKKGGKNGKNRRNRKKKNPCNAEFQNFCIHGECKYIEHLEAVTCKCQQEYFGERCGEKSMK
For B1, the “proliferation of non-malignant S1 cells in place of EGF” value in the assay on S1 cells is on record as “can substitute for EGF to promote proliferation”.

The values are drawn from patent publication US20090274626A1, “TARGETING TNF-alpha CONVERTING ENZYME(TACE)- DEPENDENT GROWTH FACTOR SHEDDING IN CANCER THERAPY” (The Regents of the University of California, priority 2005, published 2009).
